Results published in publication PMC4974565, “Rapid construction of metabolite biosensors using domain-insertion profiling” (Nature Communications, 2016).

Target: T1, Tre-C04 (TMBP-cpGFP biosensor; T. litoralis D-trehalose/D-maltose-binding protein) (Thermococcus litoralis, UniProt Q7LYW7)
T1 construct: gene malE; residues 46-450 of TMBP fused to five N-terminal residues of mature E. coli MBP, codon-optimised; expressed in E. coli Tuner, Ni-NTA purified
Experiment: cpGFP fluorescence dose-response, purified biosensor, four-parameter fit
Details: 500 nM protein; PBS; 0-50 μM sugar; Ex 485 / Em 515 nm

T1 sequence (Q7LYW7 374-450): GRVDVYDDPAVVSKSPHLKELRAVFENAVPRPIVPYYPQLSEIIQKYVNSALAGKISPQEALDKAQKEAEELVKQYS
T1 sequence (Q7LYW7 46-373): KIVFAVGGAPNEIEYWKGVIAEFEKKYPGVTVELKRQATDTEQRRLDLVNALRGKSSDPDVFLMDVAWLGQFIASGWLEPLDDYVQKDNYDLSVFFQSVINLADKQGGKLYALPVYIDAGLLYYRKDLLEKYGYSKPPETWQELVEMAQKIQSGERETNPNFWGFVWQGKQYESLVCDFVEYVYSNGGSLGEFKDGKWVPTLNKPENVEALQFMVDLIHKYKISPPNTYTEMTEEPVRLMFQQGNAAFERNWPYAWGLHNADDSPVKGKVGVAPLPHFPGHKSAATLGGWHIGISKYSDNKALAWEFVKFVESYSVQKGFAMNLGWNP

Kd | Structure (SMILES)
81 ± 1 nM | OC[C@H]1O[C@H](O[C@H]2[C@H](O)[C@@H](O)C(O)O[C@@H]2CO)[C@H](O)[C@@H](O)[C@@H]1O (some centres unmarked) [maltose]
53 ± 1 nM | OC[C@H]1O[C@H](O[C@H]2O[C@H](CO)[C@@H](O)[C@H](O)[C@H]2O)[C@H](O)[C@@H](O)[C@@H]1O [trehalose]
